How the values were obtained:
[1] = biological target: Peptidase, CTSG (Cathepsin G) (Homo sapiens, UniProt P08311); test: Safety screen; assay type: biochemical
Experimental: (§1) Blood cell counts, kinase profiler, safety screen, bacterial cytotoxicity, Ames, micronucleus assays were performed by the company Eurofins (France).

[2] = test system: Phosphodiesterase PDE4; test: Safety screen; assay type: biochemical, human
Experimental: as §1

[3] = biological target: Adenosine A2A (Homo sapiens, UniProt P29274); test: Safety screen; assay type: binding
Experimental: (§2) The kinase profiler was performed by the company Eurofins (Discovery, Panlab and Cerep).

[4] = test system: Calcium Channel L-Type, Benzothiazepine; test: Safety screen; assay type: binding, rat
[5] = biological target: Calcium Channel N-Type (Rattus norvegicus, UniProt Q02294); test: Safety screen; assay type: binding
[6] = test system: Glycine, Strychnine-Sensitive; test: Safety screen; assay type: binding, rat
[7] = biological target: Melanocortin MC1 (Homo sapiens, UniProt Q01726); test: Safety screen; assay type: binding
Experimental: as §1

[8] = biological target: Muscarinic M1 (Homo sapiens, UniProt P11229); test: Safety screen; assay type: binding
Experimental: as §1

[9] = biological target: Serotonin (5-Hydroxytryptamine) 5-HT1B (Homo sapiens, UniProt P28222); test: Safety screen; assay type: binding
Experimental: (§3) Blood cell counts, kinase profiler, safety screen, bacterial cytotoxicity, Ames, micronucleus assays were performed by the company Eurofins (France). The kinase profiler was performed by the company Eurofins (Discovery, Panlab and Cerep).

[10] = biological target: Serotonin (5-Hydroxytryptamine) 5-HT2B (Homo sapiens, UniProt P41595); test: Safety screen; assay type: binding
Experimental: as §1

[11] = biological target: Abl(m) (Mus musculus, UniProt P00520); test: Kinase Profiler; assay type: biochemical
Experimental: as §2

[12] = biological target: AMPKα2(h) (Homo sapiens, UniProt P54646); test: Kinase Profiler; assay type: biochemical
Experimental: as §3

[13] = biological target: Aurora-B(h) (Homo sapiens, UniProt Q96GD4); test: Kinase Profiler; assay type: biochemical
Experimental: as §3

[14] = biological target: Axl(h) (Homo sapiens, UniProt P30530); test: Kinase Profiler; assay type: biochemical
Experimental: as §3

[15] = biological target: Blk(h) (Homo sapiens, UniProt P51451); test: Kinase Profiler; assay type: biochemical
Experimental: as §3

[16] = biological target: CK1γ1(h) (Homo sapiens, UniProt Q9HCP0); test: Kinase Profiler; assay type: biochemical
Experimental: as §3

[17] = biological target: CK2(h) (Homo sapiens, UniProt P68400); test: Kinase Profiler; assay type: biochemical
Experimental: as §2

[18] = biological target: CSK(h) (Homo sapiens, UniProt P41240); test: Kinase Profiler; assay type: biochemical
Experimental: as §2

[19] = biological target: EphB4(h) (Homo sapiens, UniProt P54760); test: Kinase Profiler; assay type: biochemical
Experimental: as §3

[20] = biological target: ErbB2(h) (Homo sapiens, UniProt P04626); test: Kinase Profiler; assay type: biochemical
Experimental: as §2

[21] = biological target: FGFR4(h) (Homo sapiens, UniProt P22455); test: Kinase Profiler; assay type: biochemical
Experimental: as §2

[22] = biological target: Flt4(h) (Homo sapiens, UniProt P35916); test: Kinase Profiler; assay type: biochemical
Experimental: as §2

[23] = biological target: GRK3(h) (Homo sapiens, UniProt P35626); test: Kinase Profiler; assay type: biochemical
Experimental: as §3

[24] = biological target: JAK3(h) (Homo sapiens, UniProt P52333); test: Kinase Profiler; assay type: biochemical
Experimental: as §2

[25] = biological target: JNK1α1(h) (Homo sapiens, UniProt P45983); test: Kinase Profiler; assay type: biochemical
Experimental: as §2

[26] = biological target: LIMK2(h) (Homo sapiens, UniProt P53671); test: Kinase Profiler; assay type: biochemical
Experimental: as §2

[27] = biological target: MEK1(h) (Homo sapiens, UniProt Q02750); test: Kinase Profiler; assay type: biochemical
Experimental: as §2

[28] = biological target: MARK1(h) (Homo sapiens, UniProt Q9P0L2); test: Kinase Profiler; assay type: biochemical
Experimental: as §2

[29] = biological target: Mnk2(h) (Homo sapiens, UniProt Q9HBH9); test: Kinase Profiler; assay type: biochemical
Experimental: as §2

[30] = biological target: MST1(h) (Homo sapiens, UniProt Q13043); test: Kinase Profiler; assay type: biochemical
Experimental: as §3

[31] = biological target: NEK11(h) (Homo sapiens, UniProt Q8NG66); test: Kinase Profiler; assay type: biochemical
Experimental: as §2

[32] = biological target: OSR1(h) (Homo sapiens, UniProt O95747); test: Kinase Profiler; assay type: biochemical
Experimental: as §3

[33] = biological target: PhKγ2(h) (Homo sapiens, UniProt P15735); test: Kinase Profiler; assay type: biochemical
Experimental: as §3

[34] = biological target: PKA(h) (Homo sapiens, UniProt P17612); test: Kinase Profiler; assay type: biochemical
Experimental: as §3

[35] = biological target: PKG1β(h) (Homo sapiens, UniProt Q13976); test: Kinase Profiler; assay type: biochemical
Experimental: as §2

[36] = biological target: SGK2(h) (Homo sapiens, UniProt Q9HBY8); test: Kinase Profiler; assay type: biochemical
Experimental: as §2

[37] = biological target: Snk(h) (Homo sapiens, UniProt Q9NYY3); test: Kinase Profiler; assay type: biochemical
Experimental: as §2

[38] = biological target: SNRK(h) (Homo sapiens, UniProt Q9NRH2); test: Kinase Profiler; assay type: biochemical
Experimental: as §2

[39] = biological target: Src(1-530)(h) (Homo sapiens, UniProt P12931); test: Kinase Profiler; assay type: biochemical
Experimental: as §2

[40] = biological target: TAO1(h) (Homo sapiens, UniProt Q7L7X3); test: Kinase Profiler; assay type: biochemical
Experimental: as §3

[41] = biological target: ZAK(h) (Homo sapiens, UniProt Q9NYL2); test: Kinase Profiler; assay type: biochemical
Experimental: as §2

[42] = biological target: ATM(h) (Homo sapiens, UniProt Q13315); test: Kinase Profiler; assay type: biochemical
Experimental: as §2

Calcium Channel N-Type, sequence (Q02294 whole entry): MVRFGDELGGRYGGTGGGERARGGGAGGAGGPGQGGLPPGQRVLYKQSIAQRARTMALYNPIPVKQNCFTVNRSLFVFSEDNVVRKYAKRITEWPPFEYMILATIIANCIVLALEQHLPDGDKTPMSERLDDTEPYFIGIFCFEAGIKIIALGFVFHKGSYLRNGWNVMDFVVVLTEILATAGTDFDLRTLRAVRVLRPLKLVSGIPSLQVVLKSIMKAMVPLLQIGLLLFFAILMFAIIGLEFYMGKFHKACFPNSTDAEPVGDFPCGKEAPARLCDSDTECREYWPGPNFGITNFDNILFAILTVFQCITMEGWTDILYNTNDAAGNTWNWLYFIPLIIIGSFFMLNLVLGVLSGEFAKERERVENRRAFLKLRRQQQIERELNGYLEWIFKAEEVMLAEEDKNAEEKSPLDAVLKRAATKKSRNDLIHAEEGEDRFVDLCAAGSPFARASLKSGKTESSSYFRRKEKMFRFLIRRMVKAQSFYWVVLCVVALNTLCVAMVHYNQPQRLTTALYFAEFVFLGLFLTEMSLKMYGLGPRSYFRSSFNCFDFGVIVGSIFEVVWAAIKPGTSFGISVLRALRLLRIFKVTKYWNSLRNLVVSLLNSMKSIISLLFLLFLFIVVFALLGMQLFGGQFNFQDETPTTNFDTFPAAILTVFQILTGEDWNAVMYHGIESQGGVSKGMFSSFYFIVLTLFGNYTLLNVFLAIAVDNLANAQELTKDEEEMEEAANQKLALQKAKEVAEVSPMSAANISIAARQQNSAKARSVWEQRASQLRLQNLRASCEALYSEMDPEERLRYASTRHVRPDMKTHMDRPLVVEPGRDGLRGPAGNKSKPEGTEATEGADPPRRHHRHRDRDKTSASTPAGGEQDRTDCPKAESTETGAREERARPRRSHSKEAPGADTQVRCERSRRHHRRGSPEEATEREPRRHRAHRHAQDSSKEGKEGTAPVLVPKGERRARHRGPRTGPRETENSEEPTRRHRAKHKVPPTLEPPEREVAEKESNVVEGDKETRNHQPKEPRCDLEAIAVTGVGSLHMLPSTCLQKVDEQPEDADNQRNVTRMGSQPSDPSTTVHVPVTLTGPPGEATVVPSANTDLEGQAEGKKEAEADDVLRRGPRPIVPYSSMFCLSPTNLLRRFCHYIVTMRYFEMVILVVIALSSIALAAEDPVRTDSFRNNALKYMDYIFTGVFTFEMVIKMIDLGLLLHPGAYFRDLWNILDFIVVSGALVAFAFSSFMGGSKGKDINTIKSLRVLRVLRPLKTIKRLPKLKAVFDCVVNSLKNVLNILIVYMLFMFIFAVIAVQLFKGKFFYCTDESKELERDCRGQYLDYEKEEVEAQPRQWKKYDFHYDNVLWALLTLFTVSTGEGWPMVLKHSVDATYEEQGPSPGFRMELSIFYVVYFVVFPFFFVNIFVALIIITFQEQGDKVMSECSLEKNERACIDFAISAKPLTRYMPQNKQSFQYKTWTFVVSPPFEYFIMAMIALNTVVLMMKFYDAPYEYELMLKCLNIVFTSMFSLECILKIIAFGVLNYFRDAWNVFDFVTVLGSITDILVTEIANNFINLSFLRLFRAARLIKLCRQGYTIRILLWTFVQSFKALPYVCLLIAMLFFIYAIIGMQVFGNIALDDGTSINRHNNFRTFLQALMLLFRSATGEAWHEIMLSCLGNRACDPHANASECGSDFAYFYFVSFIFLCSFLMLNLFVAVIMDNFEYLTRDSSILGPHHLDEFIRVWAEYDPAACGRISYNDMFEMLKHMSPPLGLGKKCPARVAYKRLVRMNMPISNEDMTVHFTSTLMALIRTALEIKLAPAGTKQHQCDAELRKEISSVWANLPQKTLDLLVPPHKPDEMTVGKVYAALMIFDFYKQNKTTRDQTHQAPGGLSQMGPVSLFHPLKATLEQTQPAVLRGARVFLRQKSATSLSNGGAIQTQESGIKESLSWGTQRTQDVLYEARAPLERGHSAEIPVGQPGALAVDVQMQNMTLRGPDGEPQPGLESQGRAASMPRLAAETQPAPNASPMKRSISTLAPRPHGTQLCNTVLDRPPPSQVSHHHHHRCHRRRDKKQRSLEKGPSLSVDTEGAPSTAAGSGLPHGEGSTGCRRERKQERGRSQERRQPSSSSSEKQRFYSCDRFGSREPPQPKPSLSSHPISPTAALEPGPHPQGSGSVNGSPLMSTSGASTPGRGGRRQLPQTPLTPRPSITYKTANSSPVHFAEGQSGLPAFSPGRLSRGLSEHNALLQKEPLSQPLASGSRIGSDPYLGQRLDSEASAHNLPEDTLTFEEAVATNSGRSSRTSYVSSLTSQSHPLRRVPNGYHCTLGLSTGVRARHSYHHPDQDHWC
SNRK(h), sequence (Q9NRH2 whole entry): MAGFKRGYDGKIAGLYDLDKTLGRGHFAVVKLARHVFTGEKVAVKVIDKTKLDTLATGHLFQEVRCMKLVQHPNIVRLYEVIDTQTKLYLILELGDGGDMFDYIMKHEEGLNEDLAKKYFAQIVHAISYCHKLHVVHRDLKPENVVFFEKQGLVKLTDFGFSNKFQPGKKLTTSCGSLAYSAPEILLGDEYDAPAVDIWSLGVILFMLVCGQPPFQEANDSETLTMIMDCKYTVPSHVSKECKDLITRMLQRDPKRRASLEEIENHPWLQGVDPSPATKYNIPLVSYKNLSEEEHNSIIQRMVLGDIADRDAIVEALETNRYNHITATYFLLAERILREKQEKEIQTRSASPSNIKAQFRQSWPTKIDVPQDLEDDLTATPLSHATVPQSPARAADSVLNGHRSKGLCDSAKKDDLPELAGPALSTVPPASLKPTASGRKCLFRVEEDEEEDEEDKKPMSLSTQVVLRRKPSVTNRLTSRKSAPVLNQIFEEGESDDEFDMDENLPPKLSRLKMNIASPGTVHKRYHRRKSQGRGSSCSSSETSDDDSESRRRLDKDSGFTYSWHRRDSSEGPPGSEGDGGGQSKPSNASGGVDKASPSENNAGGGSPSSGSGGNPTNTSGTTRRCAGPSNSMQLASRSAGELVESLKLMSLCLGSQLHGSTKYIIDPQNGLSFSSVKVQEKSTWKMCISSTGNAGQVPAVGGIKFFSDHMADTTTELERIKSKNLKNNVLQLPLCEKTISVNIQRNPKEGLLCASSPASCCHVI
Serotonin (5-Hydroxytryptamine) 5-HT2B, sequence (P41595 whole entry): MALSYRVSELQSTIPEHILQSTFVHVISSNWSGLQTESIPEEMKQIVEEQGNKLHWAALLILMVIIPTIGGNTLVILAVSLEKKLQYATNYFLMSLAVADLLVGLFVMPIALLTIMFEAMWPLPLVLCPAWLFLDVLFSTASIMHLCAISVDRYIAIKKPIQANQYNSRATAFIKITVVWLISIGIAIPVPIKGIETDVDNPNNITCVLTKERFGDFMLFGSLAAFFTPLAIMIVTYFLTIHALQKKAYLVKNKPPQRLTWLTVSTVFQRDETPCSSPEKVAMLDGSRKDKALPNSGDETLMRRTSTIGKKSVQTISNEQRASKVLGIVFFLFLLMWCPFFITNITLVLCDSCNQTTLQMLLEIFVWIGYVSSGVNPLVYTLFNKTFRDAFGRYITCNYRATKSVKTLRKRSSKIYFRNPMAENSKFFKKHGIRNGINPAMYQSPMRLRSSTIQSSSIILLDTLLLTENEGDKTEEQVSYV
LIMK2(h), sequence (P53671 whole entry): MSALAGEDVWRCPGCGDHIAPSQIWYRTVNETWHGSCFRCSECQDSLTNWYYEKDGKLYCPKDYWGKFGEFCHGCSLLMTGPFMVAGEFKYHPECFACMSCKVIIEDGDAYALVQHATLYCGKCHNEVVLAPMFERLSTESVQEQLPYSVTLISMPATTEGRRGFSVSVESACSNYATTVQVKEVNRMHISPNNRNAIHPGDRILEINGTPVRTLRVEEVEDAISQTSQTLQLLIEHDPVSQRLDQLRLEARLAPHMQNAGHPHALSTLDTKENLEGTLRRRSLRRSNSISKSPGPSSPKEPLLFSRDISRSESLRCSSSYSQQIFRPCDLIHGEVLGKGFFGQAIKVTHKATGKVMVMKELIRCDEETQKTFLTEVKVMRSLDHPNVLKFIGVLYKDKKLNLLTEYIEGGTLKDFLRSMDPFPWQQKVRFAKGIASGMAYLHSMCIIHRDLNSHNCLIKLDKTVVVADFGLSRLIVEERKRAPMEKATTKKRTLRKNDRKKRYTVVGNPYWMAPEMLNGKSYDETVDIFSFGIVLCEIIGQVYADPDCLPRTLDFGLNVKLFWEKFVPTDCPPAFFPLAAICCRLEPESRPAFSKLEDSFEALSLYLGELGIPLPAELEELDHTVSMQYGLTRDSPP
Peptidase, CTSG (Cathepsin G), sequence (P08311 21-255): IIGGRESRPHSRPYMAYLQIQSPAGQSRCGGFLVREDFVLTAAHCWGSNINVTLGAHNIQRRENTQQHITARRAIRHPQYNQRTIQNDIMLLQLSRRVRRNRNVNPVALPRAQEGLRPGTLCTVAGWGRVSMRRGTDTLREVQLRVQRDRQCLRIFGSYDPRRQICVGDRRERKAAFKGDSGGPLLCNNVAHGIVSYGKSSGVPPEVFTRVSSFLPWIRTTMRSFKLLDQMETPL
Melanocortin MC1, sequence (Q01726 whole entry): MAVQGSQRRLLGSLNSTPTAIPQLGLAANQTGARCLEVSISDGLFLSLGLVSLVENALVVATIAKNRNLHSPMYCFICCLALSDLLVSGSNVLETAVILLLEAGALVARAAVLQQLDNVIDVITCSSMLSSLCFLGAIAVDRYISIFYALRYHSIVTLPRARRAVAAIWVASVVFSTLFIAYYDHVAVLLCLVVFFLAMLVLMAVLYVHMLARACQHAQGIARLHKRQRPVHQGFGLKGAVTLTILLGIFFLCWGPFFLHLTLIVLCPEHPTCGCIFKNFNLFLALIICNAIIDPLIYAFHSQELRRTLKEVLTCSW

With `COc1ccc(OC)c(NS(=O)(=O)c2ccc(NC(=O)CCSc3ccc(C)cc3)cc2)c1` [Compound A41] the “% inh.” value [1] was -2%, the “% inh.” value [2] was 4% and the “% inh.” value [3] was 16%. For the same molecule, the “% inh.” value [4] was 46%, the “% inh.” value [5] was 3% and the “% inh.” value [6] was -1%. The “% inh.” value [7] was 14%, the “% inh.” value [8] was 11% and the “% inh.” value [9] was 15%. The “% inh.” value [10] was 90%, the “Activity(%)” value [11] was 125% and the “Activity(%)” value [12] was 111%. For the same molecule, the “Activity(%)” value [13] was 86%, the “Activity(%)” value [14] was 101% and the “Activity(%)” value [15] was 99%. The “Activity(%)” value [16] was 106%, the “Activity(%)” value [17] was 110% and the “Activity(%)” value [18] was 119%. The “Activity(%)” value [19] was 112%, the “Activity(%)” value [20] was 116% and the “Activity(%)” value [21] was 116%. The “Activity(%)” value [22] was 92%, the “Activity(%)” value [23] was 106% and the “Activity(%)” value [24] was 106%. The “Activity(%)” value [25] was 94%, the “Activity(%)” value [26] was 115% and the “Activity(%)” value [27] was 97%. The “Activity(%)” value [28] was 110%, the “Activity(%)” value [29] was 107% and the “Activity(%)” value [30] was 96%. The “Activity(%)” value [31] was 99%, the “Activity(%)” value [32] was 103% and the “Activity(%)” value [33] was 98%. The “Activity(%)” value [34] was 84%, the “Activity(%)” value [35] was 105% and the “Activity(%)” value [36] was 117%. For the same molecule, the “Activity(%)” value [37] was 112%, the “Activity(%)” value [38] was 123% and the “Activity(%)” value [39] was 105%. The “Activity(%)” value [40] was 118%, the “Activity(%)” value [41] was 109% and the “Activity(%)” value [42] was 114%.

Reference: paper PMC12281424, “A Rac-specific competitive inhibitor of guanine nucleotide binding reduces metastasis in triple-negative breast cancer” (Cell Reports Medicine, 2025)
